Laboratory results taken from US20080262025A1, “Processes for the Preparation of Zolpidem and its Hemitartrate” (priority 2004, published 2008).

What was measured:
[1] = Hygroscopicity: moisture absorption on exposure to atmospheric / normal storage conditions, stability studies; assay type: physicochemical; conditions: for hygroscopicity: normal storage conditions / stability studies
[2] = Moisture content by Karl Fischer titration; assay type: physicochemical
Procedure: • Differential scanning calorimetry plots were recorded using the following instrument and parameters: • DSC821 e, Mettler Toledo • Sample weight: 8-10 mg • Temperature range: 25-300° C. • Heating rate: 10° C./min • Nitrogen 20.0 mL/min • Number of holes in the crucible: 1 (d) TGA analysis was carried out using Perkin Elmer Instrument (e) Moisture content determination was carried out by Karl-Fischer titration technique using Mettler instrument.

Compound: Cc1ccc(-c2nc3ccc(C)cn3c2CC(=O)N(C)C)cc1 [Form I, zolpidem hemitartrate]
- hygroscopicity [1]: non-hygroscopic
- Moisture Content ([2]; product of Example 3, dried at 45 to 50° C. under reduced pressure): 2.33 % w/w

Compound: Cc1ccc(-c2nc3ccc(C)cn3c2CC(=O)N(C)C)cc1 [Form A, zolpidem hemitartrate]
- moisture absorbed after exposure to atmospheric conditions ([1]; after exposure to atmospheric conditions): up to 5 % w/w
- hygroscopicity [1]: very hygroscopic
- moisture content after absorption of water ([2]; TGA and Karl Fischer analysis, after absorption of water): up to 5%
- moisture content, initial ([2]; TGA and Karl Fischer analysis, initially): about 1.0 % w/w
